Experimental data published in PubChem BioAssay AID1963447 (Molecular Pharmacology Branch, DTP, NCI, 2024).

Tested on: 885512-296-R-J2-PDC complex spheroid growth, % test/control
Experiment: Anticancer human tumor 885512-296-R-J2-PDC patient-derived breast carcinoma cell line growth inhibition [Asc]
Conditions: for IC50: curve of first compound; for viability, T/C: stronger effect = lower value
In short: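 Stromal components (HUVEC and hMSC) are co-assembled with the cancer cells into multicellular spheroids. Drugs are then added singly or paired, at concentrations falling by half-log increments from a clinically achievable maximum, capped at 10 microM without known Cmax.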

[1] = second compound 0.1 µM, first compound 0.0316 µM
[2] = second compound 0.1 µM, first compound 0.1 µM
[3] = second compound 0.1 µM, first compound 0.316 µM
[4] = second compound 0.1 µM, first compound 1 µM
[5] = second compound 0.316 µM, first compound 0.0316 µM
[6] = second compound 0.316 µM, first compound 0.1 µM
[7] = second compound 0.316 µM, first compound 0.316 µM
[8] = second compound 0.316 µM, first compound 1 µM
[9] = second compound 1 µM, first compound 0.0316 µM
[10] = second compound 1 µM, first compound 0.1 µM
[11] = second compound 1 µM, first compound 0.316 µM
[12] = second compound 1 µM, first compound 1 µM
[13] = second compound 3.16 µM, first compound 0.0316 µM
[14] = second compound 3.16 µM, first compound 0.1 µM
[15] = second compound 3.16 µM, first compound 0.316 µM
[16] = second compound 3.16 µM, first compound 1 µM
[17] = second compound 10 µM, first compound 0.0316 µM
[18] = second compound 10 µM, first compound 0.1 µM
[19] = second compound 10 µM, first compound 0.316 µM
[20] = second compound 10 µM, first compound 1 µM
[21] = second compound 0.1 µM, first compound 0.00316 µM
[22] = second compound 0.1 µM, first compound 0.01 µM
[23] = second compound 0.316 µM, first compound 0.00316 µM
[24] = second compound 0.316 µM, first compound 0.01 µM
[25] = second compound 1 µM, first compound 0.00316 µM
[26] = second compound 1 µM, first compound 0.01 µM
[27] = second compound 3.16 µM, first compound 0.00316 µM
[28] = second compound 3.16 µM, first compound 0.01 µM
[29] = second compound 10 µM, first compound 0.00316 µM
[30] = second compound 10 µM, first compound 0.01 µM
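Also: spheroids exposed to compounds for seven days.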
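For viability, T/C in this document: 100% = DMSO vehicle control wells.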

For `C=CC(=O)N1CCN(c2nc(=O)n(-c3c(C)ccnc3C(C)C)c3nc(-c4c(O)cccc4F)c(F)cc23)C(C)C1` (stereo not given) + Cc1c(S(C)(=O)=O)c(-c2cc(F)cc(N3CCN(c4ccc(NS(=O)(=O)c5ccc(NC(CCN6CCC(C(=O)OCCCP(=O)(O)O)CC6)CSc6ccccc6)c(S(=O)(=O)C(F)(F)F)c5)cc4)CC3)c2)c(-c2ccc(Cl)cc2)n1C(C)C, the IC50 (second compound 0.1 µM) was > 10000 nM, the IC50 (second compound 0.316 µM) was > 10000 nM and the IC50 (second compound 1 µM) was > 10000 nM. The IC50 (second compound 3.16 µM) was > 10000 nM, the IC50 (second compound 10 µM) was > 10000 nM and the viability, T/C [1] was 85.3%. For the same molecule, the viability, T/C [2] was 80.7%, the viability, T/C [3] was 92.2% and the viability, T/C [4] was 83.6%. It also gave a viability, T/C (second compound 0.1 µM, first compound 3.16 µM) of 87.6%, a viability, T/C (second compound 0.1 µM, first compound 10 µM) of 55.8% and a viability, T/C [5] of 94.3%. The viability, T/C [6] was 87.2%, the viability, T/C [7] was 86.8% and the viability, T/C [8] was 81.2%. It also gave a viability, T/C (second compound 0.316 µM, first compound 3.16 µM) of 101%, a viability, T/C (second compound 0.316 µM, first compound 10 µM) of 74.7% and a viability, T/C [9] of 80.6%. For the same molecule, the viability, T/C [10] was 73.5%, the viability, T/C [11] was 93.3% and the viability, T/C [12] was 104%. For the same molecule, the viability, T/C (second compound 1 µM, first compound 3.16 µM) was 85.7%, the viability, T/C (second compound 1 µM, first compound 10 µM) was 62% and the viability, T/C [13] was 98.7%. The viability, T/C [14] was 90.3%, the viability, T/C [15] was 109% and the viability, T/C [16] was 106%. For the same molecule, the viability, T/C (second compound 3.16 µM, first compound 3.16 µM) was 90.2%, the viability, T/C (second compound 3.16 µM, first compound 10 µM) was 68.3% and the viability, T/C [17] was 119%. The viability, T/C [18] was 117%, the viability, T/C [19] was 114% and the viability, T/C [20] was 114%. The viability, T/C (second compound 10 µM, first compound 3.16 µM) was 98.8% and the viability, T/C (second compound 10 µM, first compound 10 µM) was 71.6%.

Work on `COc1c(OCCCN2CCOCC2)ccc2c3n(c(=NC(=O)c4cnc(N)nc4)nc12)CCN3` + Cc1c(S(C)(=O)=O)c(-c2cc(F)cc(N3CCN(c4ccc(NS(=O)(=O)c5ccc(NC(CCN6CCC(C(=O)OCCCP(=O)(O)O)CC6)CSc6ccccc6)c(S(=O)(=O)C(F)(F)F)c5)cc4)CC3)c2)c(-c2ccc(Cl)cc2)n1C(C)C yielded an IC50 (second compound 0.1 µM) of 263 nM, an IC50 (second compound 0.316 µM) of 255 nM and an IC50 (second compound 1 µM) of 238 nM. The IC50 (second compound 3.16 µM) was 224 nM, the IC50 (second compound 10 µM) was 247 nM and the viability, T/C [21] was 95.2%. It also gave a viability, T/C [22] of 87.2%, a viability, T/C [1] of 95.9% and a viability, T/C [2] of 69.3%. The viability, T/C [3] was 47%, the viability, T/C [4] was 4.94% and the viability, T/C [23] was 91.2%. For the same molecule, the viability, T/C [24] was 93.5%, the viability, T/C [5] was 79.3% and the viability, T/C [6] was 79%. It also gave a viability, T/C [7] of 43.2%, a viability, T/C [8] of 5.3% and a viability, T/C [25] of 98.8%. It also gave a viability, T/C [26] of 101%, a viability, T/C [9] of 84% and a viability, T/C [10] of 70.2%. The viability, T/C [11] was 43.9%, the viability, T/C [12] was 5.16% and the viability, T/C [27] was 92.4%. The viability, T/C [28] was 87.5%, the viability, T/C [13] was 77.5% and the viability, T/C [14] was 73.5%. The viability, T/C [15] was 40%, the viability, T/C [16] was 5.34% and the viability, T/C [29] was 117%. For the same molecule, the viability, T/C [30] was 112%, the viability, T/C [17] was 96.2% and the viability, T/C [18] was 81%. For the same molecule, the viability, T/C [19] was 40.7% and the viability, T/C [20] was 4.02%.

`NC(=O)C(=Cn1cnc(-c2cc(C(F)(F)F)cc(C(F)(F)F)c2)n1)c1cncnc1` + Cc1c(S(C)(=O)=O)c(-c2cc(F)cc(N3CCN(c4ccc(NS(=O)(=O)c5ccc(NC(CCN6CCC(C(=O)OCCCP(=O)(O)O)CC6)CSc6ccccc6)c(S(=O)(=O)C(F)(F)F)c5)cc4)CC3)c2)c(-c2ccc(Cl)cc2)n1C(C)C was tested, and the IC50 (second compound 0.1 µM) was 40.1 nM, the IC50 (second compound 0.316 µM) was 38.9 nM and the IC50 (second compound 1 µM) was 39.1 nM. It also gave an IC50 (second compound 3.16 µM) of 41.3 nM, an IC50 (second compound 10 µM) of 46.1 nM and a viability, T/C (second compound 0.1 µM, first compound 0.000949 µM) of 92.8%. For the same molecule, the viability, T/C (second compound 0.1 µM, first compound 0.003 µM) was 74.5%, the viability, T/C (second compound 0.1 µM, first compound 0.00949 µM) was 81.9% and the viability, T/C (second compound 0.1 µM, first compound 0.03 µM) was 65.5%. For the same molecule, the viability, T/C (second compound 0.1 µM, first compound 0.0949 µM) was 4.49%, the viability, T/C (second compound 0.1 µM, first compound 0.3 µM) was 0.26% and the viability, T/C (second compound 0.316 µM, first compound 0.000949 µM) was 75.8%. It also gave a viability, T/C (second compound 0.316 µM, first compound 0.003 µM) of 102%, a viability, T/C (second compound 0.316 µM, first compound 0.00949 µM) of 83% and a viability, T/C (second compound 0.316 µM, first compound 0.03 µM) of 63.3%. For the same molecule, the viability, T/C (second compound 0.316 µM, first compound 0.0949 µM) was 4.42%, the viability, T/C (second compound 0.316 µM, first compound 0.3 µM) was 3.46% and the viability, T/C (second compound 1 µM, first compound 0.000949 µM) was 68.8%. It also gave a viability, T/C (second compound 1 µM, first compound 0.003 µM) of 89.2%, a viability, T/C (second compound 1 µM, first compound 0.00949 µM) of 102% and a viability, T/C (second compound 1 µM, first compound 0.03 µM) of 64.4%. It also gave a viability, T/C (second compound 1 µM, first compound 0.0949 µM) of 3.77%, a viability, T/C (second compound 1 µM, first compound 0.3 µM) of 0.23% and a viability, T/C (second compound 3.16 µM, first compound 0.000949 µM) of 92.9%. It also gave a viability, T/C (second compound 3.16 µM, first compound 0.003 µM) of 88.1%, a viability, T/C (second compound 3.16 µM, first compound 0.00949 µM) of 105% and a viability, T/C (second compound 3.16 µM, first compound 0.03 µM) of 67.9%. It also gave a viability, T/C (second compound 3.16 µM, first compound 0.0949 µM) of 4.78%, a viability, T/C (second compound 3.16 µM, first compound 0.3 µM) of 0.2% and a viability, T/C (second compound 10 µM, first compound 0.000949 µM) of 117%. For the same molecule, the viability, T/C (second compound 10 µM, first compound 0.003 µM) was 105%, the viability, T/C (second compound 10 µM, first compound 0.00949 µM) was 89.7% and the viability, T/C (second compound 10 µM, first compound 0.03 µM) was 78%. For the same molecule, the viability, T/C (second compound 10 µM, first compound 0.0949 µM) was 2.71% and the viability, T/C (second compound 10 µM, first compound 0.3 µM) was 0.25%.

`NC1CCC(NC2CC2c2ccccc2)CC1` (stereo not given) + Cc1c(S(C)(=O)=O)c(-c2cc(F)cc(N3CCN(c4ccc(NS(=O)(=O)c5ccc(NC(CCN6CCC(C(=O)OCCCP(=O)(O)O)CC6)CSc6ccccc6)c(S(=O)(=O)C(F)(F)F)c5)cc4)CC3)c2)c(-c2ccc(Cl)cc2)n1C(C)C was tested, and the IC50 (second compound 0.1 µM) was > 100 nM, the IC50 (second compound 0.316 µM) was > 100 nM and the IC50 (second compound 1 µM) was > 100 nM. The IC50 (second compound 3.16 µM) was > 100 nM, the IC50 (second compound 10 µM) was > 100 nM and the viability, T/C (second compound 0.1 µM, first compound 0.000316 µM) was 124%. For the same molecule, the viability, T/C (second compound 0.1 µM, first compound 0.001 µM) was 127%, the viability, T/C [21] was 122% and the viability, T/C [22] was 123%. For the same molecule, the viability, T/C [1] was 123%, the viability, T/C [2] was 113% and the viability, T/C (second compound 0.316 µM, first compound 0.000316 µM) was 121%. For the same molecule, the viability, T/C (second compound 0.316 µM, first compound 0.001 µM) was 126%, the viability, T/C [23] was 118% and the viability, T/C [24] was 108%. For the same molecule, the viability, T/C [5] was 127%, the viability, T/C [6] was 122% and the viability, T/C (second compound 1 µM, first compound 0.000316 µM) was 109%. For the same molecule, the viability, T/C (second compound 1 µM, first compound 0.001 µM) was 115%, the viability, T/C [25] was 122% and the viability, T/C [26] was 116%. For the same molecule, the viability, T/C [9] was 123%, the viability, T/C [10] was 121% and the viability, T/C (second compound 3.16 µM, first compound 0.000316 µM) was 112%. For the same molecule, the viability, T/C (second compound 3.16 µM, first compound 0.001 µM) was 116%, the viability, T/C [27] was 116% and the viability, T/C [28] was 111%. For the same molecule, the viability, T/C [13] was 113%, the viability, T/C [14] was 120% and the viability, T/C (second compound 10 µM, first compound 0.000316 µM) was 122%. The viability, T/C (second compound 10 µM, first compound 0.001 µM) was 104%, the viability, T/C [29] was 99.5% and the viability, T/C [30] was 121%. It also gave a viability, T/C [17] of 111% and a viability, T/C [18] of 118%.
